Measurements taken from ChEMBL document CHEMBL1221326, “Synthesis, biological evaluation, and docking studies of novel heterocyclic diaryl compounds as selective COX-2 inhibitors” (Bioorg Med Chem, 2010).

What was measured:
[1] = target: T1, Prostaglandin G/H synthase 1 (Ovis aries, UniProt P05979); experiment: Inhibition of sheep COX1 by enzyme immunoassay
T1 sequence (P05979 whole entry): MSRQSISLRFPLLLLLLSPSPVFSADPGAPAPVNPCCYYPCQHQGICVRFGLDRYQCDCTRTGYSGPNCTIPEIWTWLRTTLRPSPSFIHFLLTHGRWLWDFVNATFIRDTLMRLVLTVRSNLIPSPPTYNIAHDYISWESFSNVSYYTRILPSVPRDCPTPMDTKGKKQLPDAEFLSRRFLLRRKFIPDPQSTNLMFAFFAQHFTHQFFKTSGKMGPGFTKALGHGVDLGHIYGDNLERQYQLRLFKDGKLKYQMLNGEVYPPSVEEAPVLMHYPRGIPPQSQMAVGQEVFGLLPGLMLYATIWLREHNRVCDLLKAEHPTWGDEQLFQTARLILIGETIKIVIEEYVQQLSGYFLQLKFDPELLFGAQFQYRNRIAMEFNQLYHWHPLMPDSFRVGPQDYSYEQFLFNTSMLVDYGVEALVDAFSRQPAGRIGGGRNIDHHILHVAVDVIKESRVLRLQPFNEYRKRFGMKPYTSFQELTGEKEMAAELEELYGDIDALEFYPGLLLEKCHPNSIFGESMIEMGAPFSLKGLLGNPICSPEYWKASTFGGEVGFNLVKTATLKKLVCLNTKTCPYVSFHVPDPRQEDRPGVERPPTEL

[2] = target: T2, Prostaglandin G/H synthase 1 (Ovis aries) (UniProt P05979); experiment: Inhibition of sheep COX1 at 10 uM by enzyme immunoassay
T2 sequence (whole entry): T1 sequence (P05979 whole entry)

Ovis aries = organism: Ovis aries; experiment: Selectivity index, ratio of IC50 for sheep COX1 to IC50 for sheep COX2

SMILES	IC50 [1]	inhibition [2]	Ratio IC50 (Ovis aries)
COc1ccc(-n2nc(C(F)(F)F)cc2-c2ccc3c(c2)oc(=O)n3C)cc1	4 nM	95.6%	
COc1ccc(C2=C(c3ccc4c(c3)oc(=O)n4C)COC2=O)cc1	61 nM	59.8%	
Cn1c(=O)oc2cc(-c3cc(C(F)(F)F)nn3-c3ccc(F)cc3)ccc21	6000 nM	55.5%	6
Cn1c(=O)oc2cc(-c3cc(C(F)(F)F)nn3-c3ccc(Cl)cc3)ccc21	1000 nM	91.2%	
